The values that follow come from patent publication US11685747B2, “Compounds that inhibit MCL-1 protein” (AMGEN INC., priority 2014, dated 2023).

One test relates to OPM-2. As to the kind of experiment: Cell viability assay (OPM-2 10 FBS, CellTiter-Glo). In kind it is cell-based, human. Particulars: OPM-2 cells. The protocol:
Cell Viability Assay (OPM-2 10 FBS)
Cells were seeded into 384-well plates at 3000 cells/well density in complete growth medium containing 10% FBS, and incubated for 16 h with serially diluted test compounds in a 37° C. incubator with 5% CO2. Cell viability was tested using CellTiter-Glo® assay (Promega, Madison, Wis.) according to the manufacturer recommendations. Luminescence was determined using an EnVision® Multilabel plate reader 25 min after the addition of detection reagent. IC50 values were then calculated with Xlfit using a logistical 4-parameter fit model in GraphPad Prism (GraphPad Software, San Diego, Calif.) or in Genedata Screener® (Genedata, Basel, Switzerland).

The next test addresses T1, recombinant human Mcl-1 (Homo sapiens, UniProt Q07820).
T1 construct: C-terminally 6×His tagged Mcl-1 containing residues 171-327; made in house
As to the kind of experiment: Cell free Mcl-1:Bim affinity assay (Mcl-1 HTRF, TR-FRET). In kind it is binding. The note with it: inhibition of Mcl-1/Bim interaction. The protocol:
Cell Free Mcl-1:Bim Affinity Assay (Mcl-1 HTRF)
The inhibition of the Mcl-1/Bim interaction was measured using a time-resolved fluorescence resonance energy transfer (TR-FRET) assay. […] A biotinylated peptide derived from human Bim (residues 51-76) was purchased from CPC Scientific (San Jose, Calif.). The TR-FRET assay was conducted in a 384-well white OptiPlate™ (PerkinElmer, Waltham, Mass.) in a total volume of 40 μL. […] The reaction plates were further incubated overnight and then were read on an Envision® multimode reader (PerkinElmer). […] The IC50 values of test compounds were determined from duplicate data by analyzing competition curves using a four-parameter sigmoidal model in GraphPad Prism (GraphPad Software, San Diego, Calif.) or in Genedata Screener® (Genedata, Basel, Switzerland).

The target in test [1] is T2, Mcl-1/Bak protein-protein interactions (Homo sapiens, UniProt Q07820).
T2 construct: expressed in transfected cells; host or cells: HEK 293 M cells, transient transfection
T2 sequence (Q07820 whole entry): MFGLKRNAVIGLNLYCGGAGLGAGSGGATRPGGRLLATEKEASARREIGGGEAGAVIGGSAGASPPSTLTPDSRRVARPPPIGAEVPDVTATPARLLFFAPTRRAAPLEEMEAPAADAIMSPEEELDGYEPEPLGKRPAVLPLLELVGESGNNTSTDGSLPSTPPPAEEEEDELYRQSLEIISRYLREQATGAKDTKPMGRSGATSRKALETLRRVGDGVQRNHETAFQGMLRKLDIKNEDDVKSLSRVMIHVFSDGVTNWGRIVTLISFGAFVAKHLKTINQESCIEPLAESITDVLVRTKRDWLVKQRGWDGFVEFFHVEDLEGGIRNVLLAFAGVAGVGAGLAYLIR
As to the kind of experiment: Cell-based split luciferase complementation assay. The note with it: HEK 293 M cells, serum-free, 4 h. The protocol: Cell-Based Assay (Split Luciferase)
A split luciferase complementation assay was developed to determine the inhibition of Mcl-1/Bak protein-protein interactions in cells. […] Transient transfection was performed using Lipofectamine® LTX/Plus™ reagent (Life Technologies, Grand Island, N.Y.). 24 h after transfection, cells were collected using non-enzyme based cell dissociation buffer StemPro® Accutase® (Life Technologies), and resuspended in serum-free Opti-MEM® (Life Technologies). Cells were then seeded into assay plates with serially diluted test compounds in 0.3% DMSO at density of a 5000 cells/well. Cells were then incubated for 4 h at 37° C. in a cell culture incubator supplement with 5% CO2. Test plates were equilibrated to room temperate for 30 min before addition of 30 μL Steady-Glo® Luciferase assay reagent (Promega, Madison, Wis.) into each test well. Luminescence was determined using an EnVision® Multilabel plate reader 25 min after the addition of detection reagent. IC50 values were then calculated with Xlfit using a logistical 4-parameter fit model in GraphPad Prism (GraphPad Software, San Diego, Calif.) or in Genedata Screener® (Genedata, Basel, Switzerland).

T1 sequence (Q07820 171-327): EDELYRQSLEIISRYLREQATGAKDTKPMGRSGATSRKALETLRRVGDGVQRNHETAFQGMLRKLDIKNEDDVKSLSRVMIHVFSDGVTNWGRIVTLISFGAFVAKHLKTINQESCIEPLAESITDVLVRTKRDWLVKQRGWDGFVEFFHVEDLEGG

As to `CO[C@H]1/C=C/CCCS(=O)(=O)NC(=O)c2ccc3c(c2)N(C[C@@H]2CC[C@H]21)C[C@@]1(CCCc2cc(Cl)ccc21)CO3` [Example 9, (1S,3′R,6′R,7′S,8′E)-6-Chloro-7′-Methoxy-3,4-Dihydro-2H,15′H-Spiro[Naphthalene-1,22′-[20]Oxa[13]Thia[1,14]Diazatetracyclo[14.7.2.0^3,6.0^19,24]Pentacos A[8,16,18,24]Tetraen]-15′-One 13′,13′-Dioxide], the IC50 in the test with OPM-2 (Homo sapiens, OPM-2, 16 h) turned out to be 1200 nM; on recombinant human Mcl-1 it was 1.24 nM; in test [1], 127 nM.
As for `C[C@H]1C/C=C/[C@H](O)[C@@H]2CC[C@H]2CN2C[C@@]3(CCCc4cc(Cl)ccc43)COc3ccc(cc32)C(=O)NS(=O)(=O)[C@@H]1C1CC1` (single isomer, unassigned) [Example 47], the figures for the IC50 (in the test with OPM-2 (16 h); on recombinant human Mcl-1; in test [1]) were 284 nM, 0.248 nM and 60 nM, respectively.
On the same counts, the results for `CC(C)C[C@@H]1[C@@H](C)C/C=C/[C@H](O)[C@@H]2CC[C@H]2CN2C[C@@]3(CCCc4cc(Cl)ccc43)COc3ccc(cc32)C(=O)NS1(=O)=O` (single isomer, unassigned) [Example 65] are 3280 nM, 5.3 nM and 376 nM.
For `CC(C)[C@@H]1[C@H](C)C/C=C/[C@H](O)[C@@H]2CC[C@H]2CN2C[C@@]3(CCCc4cc(Cl)ccc43)COc3ccc(cc32)C(=O)NS1(=O)=O` (single isomer, unassigned) [Example 51] the same measures were 14400 nM, 24.3 nM and 792 nM.
For `C[C@H]1C/C=C/[C@H](O)[C@@H]2CC[C@H]2CN2C[C@@]3(CCCc4cc(Cl)ccc43)COc3ccc(cc32)C(=O)NS(=O)(=O)[C@@H]1CC1CC1` (single isomer, unassigned) [Example 60] the same measures were 158 nM, 0.514 nM and 23.4 nM.
For `C[C@@H]1C/C=C/[C@H](O)[C@@H]2CC[C@H]2CN2C[C@@]3(CCCc4cc(Cl)ccc43)COc3ccc(cc32)C(=O)NS(=O)(=O)[C@H]1CC1CCC1` (single isomer, unassigned) [Example 64], the results for the IC50 (in the test on OPM-2 (16 h); on recombinant human Mcl-1; in test [1]) were 8630 nM, 13.6 nM and 318 nM, respectively.
On the same counts, the results for `C[C@H]1C/C=C/[C@H](O)[C@@H]2CC[C@H]2CN2C[C@@]3(CCCc4cc(Cl)ccc43)COc3ccc(cc32)C(=O)NS(=O)(=O)[C@@H]1CC1CC1` (single isomer, unassigned) [Example 59] are 247 nM, 0.492 nM and 61.5 nM.
On the same counts, the results for `C[C@H]1C/C=C/[C@H](O)[C@@H]2CC[C@H]2CN2C[C@@]3(CCCc4cc(Cl)ccc43)COc3ccc(cc32)C(=O)NS(=O)(=O)[C@@H]1C1CC1` (single isomer, unassigned) [Example 45] are 20000 nM, 5.5 nM and 455 nM.
For `CC[C@@H]1CCCC[C@H](O)[C@@H]2CC[C@H]2CN2C[C@@]3(CCCc4ccccc43)COc3ccc(cc32)C(=O)NS1(=O)=O` [Example 22, (1S,3′R,6′R,7′S,12′R)-12′-Ethyl-7′-Hydroxy-3,4-Dihydro-2H,15′H-Spiro[Naphthalene-1,22′-[20]Oxa[13]Thia[1,14]Diazatetracyclo[14.7.2.0^3,6.0^19,24]Pentacos A[16,18,24]Trien]-15′-One 13′,13′-Dioxide], the IC50 in the test with OPM-2 (Homo sapiens, OPM-2, 16 h) was determined as 1250 nM; on recombinant human Mcl-1, 0.704 nM; in test [1] it was 117 nM.
On the same counts, the results for `O=C1NS(=O)(=O)CCCCC[C@H](O)[C@@H]2CC[C@H]2CN2C[C@@]3(CCCc4cc(Cl)ccc43)COc3ccc1cc32` [Example 10, (1S,3′R,6′R,7′S)-6-Chloro-7′-Hydroxy-3,4-Dihydro-2H,15′Hspiro[Naphthalene-1,22′[20]Oxa[13]Thia[1,14]Diazatetracyclo[14.7.2.0^3,6.0^19,24]Penta Cosa[16,18,24]Trien]-15′-One 13′,13′-Dioxide] are 9410 nM, 1.18 nM and 232 nM.
Turning to `CC(C)[C@@H]1[C@H](C)C/C=C/[C@H](O)[C@@H]2CC[C@H]2CN2C[C@@]3(CCCc4cc(Cl)ccc43)COc3ccc(cc32)C(=O)NS1(=O)=O` (single isomer, unassigned) [Example 52], the IC50 came to 1110 nM in the test with OPM-2 (16 h), 0.882 nM at recombinant human Mcl-1 and 140 nM in test [1].
With `CCC[C@@H]1[C@@H](C)C/C=C/[C@H](O)[C@@H]2CC[C@H]2CN2C[C@@]3(CCCc4cc(Cl)ccc43)COc3ccc(cc32)C(=O)NS1(=O)=O` [Example 70, (1S,3′R,6′R,7′S,8′E,11′S,12′R)-6-Chloro-7′-Hydroxy-11′-Methyl-12′-Propyl-3,4-Dihydro-2H,15′H-Spiro[Naphthalene-1,22′-[20]Oxa[13]Thia[1,14] Diazatetracyclo [14.7.2.0^3,6.0^19,24]Pentacosa [8,16,18,24]Tetraen]-15′-One 13′,13′-Dioxide], the half-maximal inhibitory concentration (IC50) in the test on OPM-2 (Homo sapiens, OPM-2, 16 h) worked out at 238 nM; on recombinant human Mcl-1, 0.638 nM; in test [1], 34.7 nM.
On the same counts, the results for `CC(C)O[C@H]1/C=C/C[C@H](C)[C@@H](C)S(=O)(=O)NC(=O)c2ccc3c(c2)N(C[C@@H]2CC[C@H]21)C[C@@]1(CCCc2cc(Cl)ccc21)CO3` [Example 43, (1S,3′R,6′R,7′S,8′E,11′S,12′R)-6-Chloro-11′,12′-Dimethyl-7′-(1-Methylethoxy)-3,4-Dihydro-2H,15′H-Spiro[Naphthalene-1,22′-[20]Oxa[13]Thia[1,14]Diazatetracyclo[14.7.2.0^3,6.0^19,24]Pentacos A[8,16,18,24]Tetraen]-15′-One-13′,13′-Dioxide] are 902 nM, 1.75 nM and 130 nM.
For `CC1(C)CC/C=C/[C@H](O)[C@@H]2CC[C@H]2CN2C[C@@]3(CCCc4cc(Cl)ccc43)COc3ccc(cc32)C(=O)NS1(=O)=O` (single isomer, unassigned) [Example 40] the same measures were 7300 nM, 7.68 nM and 297 nM.
Consider `CC(C)[C@@H]1[C@H](C)C/C=C/[C@H](O)[C@@H]2CC[C@H]2CN2C[C@@]3(CCCc4cc(Cl)ccc43)COc3ccc(cc32)C(=O)NS1(=O)=O` (single isomer, unassigned) [Example 50], for which the IC50 in the test with OPM-2 (16 h) turned out to be 1320 nM; on recombinant human Mcl-1, 1.01 nM; in test [1], 232 nM.
On the same counts, the results for `C[C@H]1C/C=C/[C@H](O)[C@@H]2CC[C@H]2CN2C[C@@]3(CCCc4cc(Cl)ccc43)COc3ccc(cc32)C(=O)NS(=O)(=O)[C@@H]1C1CC1` (single isomer, unassigned) [Example 44] are 208 nM, 0.297 nM and 21.5 nM.
With `C[C@H]1C/C=C/[C@H](O)[C@@H]2CC[C@H]2CN2C[C@@]3(CCCc4cc(Cl)ccc43)COc3ccc(cc32)C(=O)NS(=O)(=O)[C@@H]1CC1CC1` (single isomer, unassigned) [Example 58], the IC50 in the test with OPM-2 (16 h) came to 496 nM; on recombinant human Mcl-1, 0.917 nM; in test [1], 48.2 nM.
For the compound `CCC[C@@H]1[C@@H](C)C/C=C/[C@H](O)[C@@H]2CC[C@H]2CN2C[C@@]3(CCCc4cc(Cl)ccc43)COc3ccc(cc32)C(=O)NS1(=O)=O` (single isomer, unassigned) [Example 68], the IC50 in the test on OPM-2 (16 h) was 179 nM; at recombinant human Mcl-1, 0.501 nM; in test [1] it was 16.4 nM.
